Assay results from a melting point compilation (Tetko et al.; mined from patent text by program, amines drawn as free bases though some values may be those of a salt).

melting point	SMILES
165 to 168 °C	O=C(c1ccc(Br)cc1Cl)c1cccc2c1Nc1ncccc1CN2
220 to 221 °C	CC(C)Cn1c(CNC(=O)OC(C)(C)C)c(-c2ccc(Cl)cc2)c2cc(O)ccc2c1=O
> 200 °C	CCOC(=O)c1nc(NCC(c2ccccc2)c2ccccc2)c2nc[nH]c2n1
89 to 92 °C	CCCOc1ccc(-c2ccc(-c3ccccc3Cl)n2Cc2ccc(OCCO)c(N)n2)cc1
158 to 162 °C	Cc1ccc(C)c2c(C=O)c3ccccc3c(C=O)c12
224 to 225 °C	ON=C(c1ccccc1)c1ccc(C(=NO)c2ccc(C(=NO)c3ccccc3)cc2)cc1
198 to 200 °C	O=C(O)c1cccc(Cc2cc(Cl)cc(Cc3ccccc3O)c2O)c1O
> 220 °C	Brc1ccc(Nc2ncc(-c3ccccc3)s2)nc1
114 to 115 °C	CC(C)N(C[C@H](O)[C@H](Cc1ccccc1)NC(=O)OCc1ccccc1)NC(=O)OC(C)(C)C
90 to 91 °C	COC(=O)O[C@@H]1[C@@H](c2ccccc2)Nc2c(ccn3c(C)c(C)nc23)[C@H]1OC
221 to 223 °C	O=C(O)COc1ccc(-c2c3ccccc3cc3sc4ccccc4c23)cc1
244 to 247 °C	CC(C)(C)c1cc(C(=O)NNC(=O)c2occ(-c3ccccc3)c2-c2ccccc2)ccc1O
133 °C	Cc1cc(Oc2cc(C(F)(F)F)nn2C)nc(C(=O)Nc2ccc(F)cc2)c1
151 to 153 °C	Cc1cccc2c1nc(C(C)C)n2Cc1c(F)cccc1F
109 to 110 °C	Cc1oc(-c2ccccc2)nc1CCc1nc(COc2ccccc2CC(=O)O)co1
225 to 226 °C	COc1ccc(NS(=O)(=O)c2cc3cc(Cl)ccc3oc2=O)cc1O
> 300 °C	O=C1N=C(c2ccc(C(=O)Cl)cc2)C(c2ccc(C(=O)Cl)cc2)O1 (stereo unspecified)
193 to 194 °C	CC(=O)OC1CCCN(C(=O)c2ccc(NC(=O)c3ccccc3C)cc2)c2ccccc21 (stereo unspecified)
120 to 122 °C	COC(=O)c1ccc(=O)n(CCN(C)C(=O)c2cccnc2)c1
138 to 139 °C	Cc1c(NC(=O)c2ccc(-c3ccccc3)c(F)c2)ccc2cc(CN3CCCCC3)cnc12
254 °C	Cc1cc(-c2cc(C(F)(F)F)n3cnc(-c4ccncc4)c3n2)ccc1Cl
59 to 61 °C	COC(=O)c1c(OCc2ccccc2)ccc2c1CCCC2
139 to 141 °C	O=C1N(Cc2ccccc2)c2cc(Cl)ccc2N=C2CCCC12Cc1ccccc1 (stereo unspecified)

melting point	SMILES
211 to 212 °C	CC(C)(C)OC(=O)CN1C(=O)C(N2C(=O)c3ccccc3C2=O)CSCC1c1cccs1 (stereo unspecified)
153 to 155 °C	Cc1cccc(-c2[nH]c(C(C)C)nc2-c2ccc(F)c(-c3ccc(C(=O)NN4CCOCC4)cc3)c2)n1
153 to 156 °C	CC(C)CC(NC(=O)C(NCc1ccccc1)C(C)C)C(=O)NC(CCCCNC(=O)OCc1ccccc1)C(=O)Oc1cccc2ccccc12 (stereo unspecified)
204 to 205 °C	O=C(Nc1ccc(N2CCCC2)nc1)c1cc2ccc(C(F)(F)F)nc2n1Cc1cccc(F)c1
148 to 150 °C	O=[N+]([O-])c1cccc(-c2ccnc3c(-c4ccsc4)cnn23)c1
267 to 268 °C	CC(c1ccccc1)c1n[nH]c2c1c(=O)n(-c1ccccc1)c1ncccc21 (stereo unspecified)
105 to 108 °C	COc1c(C)c(C)c(OC)c(C(O)(c2ccc(C(C)C)cc2)C2CCN(Cc3ccccc3)CC2)c1C (stereo unspecified)
99 to 100 °C	Cc1cc([N+](=O)[O-])cc(C)c1Oc1ccc(OCc2ccccc2)c(C(C)C)c1
191 to 193 °C	COc1cc(N(C(=O)COCCOCC(N)=O)c2cc(OC)cc3ccc(C)nc23)c2nc(C)ccc2c1
271 to 273 °C	CC(=O)c1ccc(-n2c(-c3sc(Nc4ccccc4)nc3C)nc3ccccc3c2=O)cc1
225 to 226 °C	CN(C)Cc1cccc(-c2cc(-c3ccccc3O)nc(NC(=O)c3cccs3)c2C#N)c1
234 to 235 °C	Cc1ccc(-c2nc(=S)n(Cc3ccccc3)[nH]2)cc1
180 °C	COc1ccc(CCNc2nc(C)c(CCO)c(=O)[nH]2)cc1
157 to 159 °C	O=S(=O)(Nc1cccc(OCc2ccc3ccccc3n2)c1)c1ccc(Cl)cc1
155 to 157 °C	Cc1[nH]c(C(=O)N2CCCC2)c(C)c1-c1nc2ccc(C(=O)c3ccccc3)cc2[nH]1
248 to 250 °C	CC(=C1SC(=O)NC1=O)c1ccc(OCCOc2c(-c3ccc(F)c(F)c3)n(C)c3ccccc3c2=O)cc1
102 to 103 °C	CC(=Cc1ccccc1)c1ccc2c(c1)C(C)(C)CC(O)C2(C)C (stereo unspecified)
232 to 235 °C	N#Cc1nc2ccccc2n(-c2ccc(Cl)cc2)c1=O
272 to 274 °C	O=C(Nc1ccccn1)c1cnc2c(c1O)CN(C(=O)OCc1ccccc1)CC2
234 to 235 °C	Cc1cc(CNC(=O)c2sc(-n3cnn(Cc4ccc(F)cc4)c3=O)nc2C)[nH]n1
210 to 212 °C	O=C(Nc1ccccc1)Nc1[nH]c2ccccc2c1-c1ccccc1
178 to 183 °C	Cc1c(NC(=O)C(CSC(=O)C(C)C)Cc2ccccc2)cccc1C(=O)O (stereo unspecified)

Continued, compound first:

SMILES	melting point
Cc1ccc(-c2c(Cl)nc3ncnn3c2NC(C)C)c(F)c1	121 °C
O=Cc1cc([N+](=O)[O-])ccc1OC(F)(F)F	32 to 34 °C
COC(=O)C(C(=O)OC)C(Cc1c(N)cccc1C(F)(F)F)c1ccc(OC)cc1 (stereo unspecified)	111 to 113 °C
Cc1cc(C#N)ccc1-c1cc(=O)c2c(O)cc(O)c([C@@H]3CCN(C)[C@H]3CO)c2o1	145 to 147 °C
CC(=O)Oc1c2c(c3ccccc3c1OC(=O)CNC(=O)OC(C)(C)C)OC(C)(C)CC2	177 °C
CC(C)c1c[nH]c(=O)[nH]c1=O	284 to 286 °C
CN1C(=O)CC[C@]2(C)c3ccc(-c4ccc(F)cc4F)cc3CC[C@@H]12	108 to 112 °C
CCONC(=O)COc1cccc2c1c(C(=O)C(N)=O)c(CC)n2Cc1ccccc1	176 to 178 °C
CC(C)N(C(=O)COc1nnc(C(F)F)s1)c1cccc(Cl)c1	98 °C
COC(=O)c1cc(C#CCOC2CCCCO2)c(C(F)(F)F)cc1N (stereo unspecified)	88 °C
Cc1nc2c(c3c1[nH]c1ccc(F)cc13)C(=O)CC(C)(C)C2	229 to 230 °C
O=S(=O)(N[C@@H]1C[C@@H](/C=C\CCCCO)N(S(=O)(=O)c2ccc(Cl)cc2)C1)c1ccc(Cl)cc1	108 to 109 °C
NS(=O)(=O)c1ccc(Nc2nc(OCC3CCCCC3)c3[nH]cnc3n2)cc1	152 to 154 °C
Cc1cc2c(cc1Cl)N(C(=O)Nc1ccncc1)CC2	> 230 °C
Brc1cnc2c(c1)ncn2-c1cccc(CN2CCOCC2)c1	176 to 178 °C
C#CCN1C(=O)C(C)Oc2cc(F)c(N)cc21 (stereo unspecified)	142 to 145 °C
CC(O)c1cc(C(C)O)cc(S(N)(=O)=O)c1 (stereo unspecified)	175 to 177 °C
CCNc1nc(N)c(SC)c(Cl)n1	124 °C
CCOC(=O)C1(CBr)C=CC=CC1S(=O)(=O)NC(C)(C)C (stereo unspecified)	74 to 75 °C
Cc1c(O)ccnc1CSc1nc2ccc(F)cc2[nH]1	232 to 233 °C
Cc1ccc2c(c1)oc1c(C(=O)NN3CCOCC3)nn(-c3ccc(Cl)cc3Cl)c12	178 to 180 °C
CCCCc1nc(Cl)c(CC(=O)O)n1Cc1ccc([N+](=O)[O-])cc1	207 to 210 °C
CCC12CCC3=C(CCc4cc(OC)ccc43)C1CCC2=O (stereo unspecified)	110 to 125 °C
CN1CC[C@@H]2CC(=O)c3c(F)cc(F)cc3[C@@H]2C1 (relative stereo)	> 220 °C
CCOC(=O)c1csnc1-c1ccc(Cl)cc1	70.5 to 71.5 °C
CCOc1c(NC(C)(C)CC)c(=O)c1=O	78 to 80 °C

SMILES	melting point
Clc1nc(NCc2ccc3c(c2)OCO3)c2c3c(sc2n1)CCCC3	222 °C
Cc1oc2cccc(OCC#N)c2c1C	50 to 52 °C
CC(OC1CCCN(Cc2n[nH]c(=O)[nH]2)C1c1ccccc1)c1cc(C(F)(F)F)cc(C(F)(F)F)c1 (stereo unspecified)	214 to 215 °C
CCOC(CCc1c(N(C(C)=O)C(C)=O)nc(NC(C)=O)[nH]c1=O)OCC	126 to 137 °C
Nc1cc2c(cc1Oc1ccc(F)cc1)CCC2	123 °C
OC(CCCl)c1ccccc1 (stereo unspecified)	56 to 57 °C
c1csc(-c2cc(-c3cccs3)ncn2)c1	146 °C
COc1ccc(-c2cc(=O)c3c(OCC4=COC(C)(C)O4)cc(OCC4=COC(C)(C)O4)cc3o2)cc1O	160 °C
O=C1CCC(=O)N1CC#CCn1ccnc1	120 to 122 °C
CCCn1c(CCOC)nc2c(N)nc3cc(OC4CCN(C(=O)C(C)C)CC4)ccc3c21	165 to 166 °C
Fc1cccc(-c2nc3cnccc3[nH]2)c1	290 to 291 °C
C#Cc1c(OC)nc(C)nc1C(F)(F)F	77 °C
COc1ccc(-c2[nH]c3cn[nH]c(=O)c3c2Cl)cc1OC(C)C	291 to 299 °C
O=C(c1cc(-c2ccncc2)c(N2CCOCC2)s1)c1ccc(Cl)cc1Cl	180 °C
CCCCCCCCCCCc1cc2ccc(C(=O)O)cc2[nH]1	156 to 158 °C
Cc1nc2cc(OCCCN3CC=C(c4c[nH]c5ccc(C#N)cc45)CC3)ccc2s1	263 to 265 °C
O=C(CCCCCl)c1cc2c(c([N+](=O)[O-])c1)OCC2	91 to 92 °C
OC[C@H](O)[C@H](O)[C@@H](O)[C@@H](O)C=NNc1ccccc1	198 to 199 °C
CCCSC1(C(F)(F)F)CN(C2CC2)C(=O)Nc2ccc(Cl)cc21 (stereo unspecified)	150 to 151 °C
COc1cc(C=CC(=O)OC2C(O)C=C(C)C(=O)CC2(C)C)ccc1O (stereo unspecified)	125 to 127 °C
CC(=O)N1CCCN(CC2=Nc3cccc4c(=O)[nH]nc(c34)N2)CC1	191 to 193 °C
N#Cc1c(OCC(F)(F)F)nc(N)nc1N1CCc2ccccc2CC1	145 to 147 °C
NC(=O)c1ccc2c(c1)S(=O)(=O)N=CN2C1CC1	278 to 281 °C
CC(C)=CCOc1ccc(C(=O)C=Cc2ccc(C(C)(C)C)cc2)c(OCC(=O)O)c1	136 to 139 °C
CS(=O)(=O)c1ccc(N)c(C#N)c1	155 to 157 °C
